Experimental data reported in paper PMC10525438 (2023).

How the values were obtained:
[1] = system: h18-U (RNA, rRNA) CUCCGUGCCAGCAGCCGCGGUAAUACGGAG; assay: CD titration at 265 nm; conditions: 15 mM KCl, 4 mM MgCl2; 20 mM potassium cacodylate pH 7.0, 30 °C; 5 µM RNA (Methods print a different CD buffer, pH 7.6)
[2] = system: h18-Ψ (RNA, rRNA, pseudouridine at 516 (E. coli numbering; residue 6 of the 30-nt model)) CUCCGUGCCAGCAGCCGCGGUAAUACGGAG; assay: CD titration at 265 nm; conditions: 15 mM KCl, 4 mM MgCl2; 20 mM potassium cacodylate pH 7.0, 30 °C; 5 µM RNA (Methods print a different CD buffer, pH 7.6)

Kd [1]: 63 ± 1 µM
Kd [2]: 23 ± 3 µM
SMILES: CN[C@@H]1[C@H](O[C@H]2[C@H](O[C@H]3[C@H](O)[C@@H](O)[C@H](N=C(N)N)[C@@H](O)[C@@H]3N=C(N)N)O[C@@H](C)[C@]2(O)C=O)O[C@@H](CO)[C@H](O)[C@H]1O
